# Source: patent US20170105969A1, “CENICRIVIROC FOR THE TREATMENT OF HIV-2 INFECTION” (Tobira Therapeutics, Inc., priority 2014, published 2017)
# Counter-ions that a name gives are not always drawn. Like-named read-outs stand apart in the source and are kept apart here. Marks after values point to notes of the source that are not given here.
# Tests used:
# HIV = test: Ex vivo intracellular HIV DNA (qPCR) in PBMCs of Study 202 subjects; conditions: EFV 600 mg arm, Week 24
# Method: (§1) Early (strong-stop) and late (full-length) reverse transcript levels were measured by qPCR. […] P24 and viral load levels were measured by ELISA and qRT-PCR after 4 hours.
# HIV-1 [1] = test: Study 202: virologic response (plasma HIV-1 RNA <50 copies/mL), Snapshot algorithm, ITT; format: in vivo, human; conditions: Week 24; EFV arm
# Source text: The primary efficacy endpoint was the percentage of subjects with plasma HIV-1 RNA <50 copies/mL at Week 24 (using the FDA Snapshot algorithm and the ITT population).
# [2] = APRI and FIB-4 fibrosis scores, post-hoc analysis of Study 202; format: in vivo, human
# Method: Change in score category from baseline (BL) to Weeks 24 and 48 was assessed in patients with non-missing data. Correlations between changes from BL in APRI and FIB-4 scores, and MCP-1 (CCR2 ligand) and sCD14 (inflammatory biomarker) levels were evaluated.
# HIV-1 [3] = test: Study 202: virologic response (plasma HIV-1 RNA <50 copies/mL), Snapshot algorithm, ITT; format: in vivo, human; conditions: for virologic non-response, subgroup with high baseline viral load (≧100,000 copies/mL): EFV
# CCR2 = target: T1, CCR2 (Homo sapiens, UniProt P41597); test: CCR2 receptor occupancy / internalization in PBMCs (monocytes) by flow cytometry; format: cell-based
# T1 construct: endogenous in cells; host or cells: monocytes within PBMCs from 5 HIV+ and 5 HIV- subjects
# T1 sequence (P41597 1-360 isoform P41597-2): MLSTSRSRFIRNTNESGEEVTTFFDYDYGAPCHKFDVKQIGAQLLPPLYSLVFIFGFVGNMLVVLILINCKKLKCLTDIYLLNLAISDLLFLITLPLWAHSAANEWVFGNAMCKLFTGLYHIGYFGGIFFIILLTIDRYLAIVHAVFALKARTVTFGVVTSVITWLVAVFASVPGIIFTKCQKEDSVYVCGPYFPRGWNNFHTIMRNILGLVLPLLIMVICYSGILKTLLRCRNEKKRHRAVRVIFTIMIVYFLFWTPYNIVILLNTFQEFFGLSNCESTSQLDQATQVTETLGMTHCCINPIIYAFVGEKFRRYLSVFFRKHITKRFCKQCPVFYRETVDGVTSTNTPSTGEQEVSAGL
# Method: (§2) The capacity of each drug to inhibit CCR5 or CCR2 internalization was evaluated. Cell-surface expression of CCR5 and CCR2 was assessed by flow cytometry, and fluorescence values were converted into molecules of equivalent soluble fluorescence (MESF).
# HIV-1 [4] = test: HIV-1 susceptibility to maraviroc, observed results; format: cell-based; conditions: HIV-1 (n = 4)
# HIV-1 [5] = conditions: HIV-1 (n = 43); Dorr et al. (2005); read-out: Median IC50; cited from earlier work
# CCR5-tropic HIV-1 BaL = test: PM-1 cells infected with HIV-1 BaL, supernatant P24 and viral load after 4 hours; format: cell-based; conditions: CVC 20 nM or MVC 50 nM
# Method: as §1
# CCR5 = CCR5 (Homo sapiens, UniProt P51681); test: CCR5 receptor occupancy / internalization in PBMCs by flow cytometry; format: cell-based
# CCR5, sequence (P51681 whole entry): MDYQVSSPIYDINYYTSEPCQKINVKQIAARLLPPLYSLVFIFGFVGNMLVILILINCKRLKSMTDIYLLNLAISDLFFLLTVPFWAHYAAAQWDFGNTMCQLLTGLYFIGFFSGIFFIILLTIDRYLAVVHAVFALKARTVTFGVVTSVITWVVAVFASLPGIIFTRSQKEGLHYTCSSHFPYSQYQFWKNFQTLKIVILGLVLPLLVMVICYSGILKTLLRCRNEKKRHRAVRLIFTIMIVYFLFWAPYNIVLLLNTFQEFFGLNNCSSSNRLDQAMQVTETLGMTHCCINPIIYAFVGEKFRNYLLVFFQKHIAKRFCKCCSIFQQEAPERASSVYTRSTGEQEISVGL
# Method: as §2
# HIV-2 clinical isolates = test: HIV-2 phenotypic susceptibility, ANRS PBMC method; format: cell-based
# Method: All patients were infected with HIV-2 group A. Tropism was determined phenotypically using Ghost(3) cell lines expressing CD4 receptor and one HIV coreceptor, CCR5 or CXCR4. Both Ghost(3) cell lines carries a humanized green fluorescent protein (GFP) gene, under the control of a HIV-2 LTR. […] Ghost(3) cells were provided by the NIH AIDS Reagent program.
# Briefly, cell-free HIV-2 positive supernatant was serially diluted (1, 10^−1, and 10^−2) and incubated with PBMC for viral titration. Viruses were tested at a 100 TCID50 titration. Cells were pre-incubated with cenicriviroc or maraviroc at an appropriate concentration 1 hour before viral infection. Six serial dilutions of the antiretroviral drug were tested in quadruplicate. On day 4, viral replication was assessed by a specific viral load assay (Generic HIV-2 viral load, Biocentric, France).
# [6] = Solubility of cenicriviroc mesylate; format: physicochemical
# [7] = HIV-2 isolate 10-046, group A, R5
# [8] = HIV-2 isolate 10-051, group A, R5
# [9] = HIV-2 isolate 10-055, group A, X4
# [10] = HIV-2 isolate 10-056, group A, R5
# [11] = HIV-2 isolate 10-069, group A, Dual
# [12] = HIV-2 isolate 10-074, group A, R5
# [13] = mixed R5/X4 HIV-2 clinical isolate, first of two
# [14] = mixed R5/X4 HIV-2 clinical isolate, second of two
compound,measurement,setting,value
"O=C1Nc2ccc(Cl)cc2[C@@](C#CC2CC2)(C(F)(F)F)O1 [EFV, efavirenz, reference compound]",Strong-stop HIV DNA decline (marker of HIV entry),HIV,no decline
same,Discontinued study due to AE or death,HIV-1 [1],(18%)
same,HIV-1 RNA ≧50 but <400 copies/mL,HIV-1 [1],(4%)^f
same,patients in APRI category 0.5-1.5,[2]; Baseline,4%
same,patients in APRI category <0.5,[2]; Baseline,96%
same,patients in FIB-4 category <1.45,[2]; Baseline,100%
same,APRI: Decreased 1 category from baseline,[2]; Week 24,5%
same,patients in APRI category <0.5,[2]; Week 24,100%
same,patients in FIB-4 category <1.45,[2]; Week 24,100%
same,APRI: Decreased 1 category from baseline,[2]; Week 48,6%
same,patients in APRI category <0.5,[2]; Week 48,100%
same,patients in FIB-4 category 1.45-3.25,[2]; Week 48,6%
same,patients in FIB-4 category <1.45,[2]; Week 48,94%
same,"virologic non-response, subgroup with high baseline viral load (≧100,000 copies/mL)",HIV-1 [3]; Week 24,25%
same,"virologic non-response, subgroup with high baseline viral load (≧100,000 copies/mL)",HIV-1 [3]; Week 48,25%
same,Discontinued study due to AE or death,"HIV-1 [3]; Week 48, EFV arm",(21%)
"CSc1ccc(C(=O)N[C@@H]2CCCC[C@@H]2NC(=O)CNC(=O)c2cc(C(F)(F)F)ccc2NC(=O)NC(C)C)cc1 [BMS-22, reference compound]",average concentration required to reach >80% receptor occupancy,"CCR2; CCR2, monocytes",18 nM
same,CCR2 cell-surface expression (in words),"CCR2; in the absence of MCP-1, monocytes",slightly increased CCR2 cell-surface expression
maraviroc [MVC],median MPI,HIV-1 [4],74%
same,IC50,HIV-1 [4]; read-out: Median IC50,2.4 nM
same,IC50,HIV-1 [5],0.4 nM
same,supernatant P24,CCR5-tropic HIV-1 BaL; 0 hrs (baseline),506 ng/mL
same,viral load,CCR5-tropic HIV-1 BaL; 0 hrs,1.19×10^10 copies/ml
same,supernatant P24,CCR5-tropic HIV-1 BaL; 4 hrs,520 ng/mL
same,viral load,CCR5-tropic HIV-1 BaL; 4 hrs,1.67×10^10 copies/ml
same,CCR5 receptor occupancy at saturation,CCR5; CD4+ T cells,~86%
same,effective concentration at which saturation of CCR5 was reached,CCR5; CD4+ T cells,12.5 nM
same,CCR5 receptor occupancy at saturation,CCR5; CD8+ T cells,~87%
same,effective concentration at which saturation of CCR5 was reached,CCR5; CD8+ T cells,12.5 nM
same,cell-surface expression of CCR5 (in words),"CCR5; in the absence of RANTES, PBMCs",increased cell-surface expression of CCR5
same,median MPI,HIV-2 clinical isolates; 13 R5 HIV-2 clinical isolates,93%
same,median MPI,"HIV-2 clinical isolates; 13 R5 HIV-2 clinical isolates, listed as maraviroc",93%
same,EC50,HIV-2 clinical isolates; [7],1.13 nM
same,MPI (%),HIV-2 clinical isolates; [7],93%
same,EC50,HIV-2 clinical isolates; [8],0.48 nM
same,MPI (%),HIV-2 clinical isolates; [8],82%
same,EC50,HIV-2 clinical isolates; [9],> 1000 nM
same,MPI (%),HIV-2 clinical isolates; [9],0%
same,EC50,HIV-2 clinical isolates; [10],0.58 nM
same,MPI (%),HIV-2 clinical isolates; [10],90%
same,EC50,HIV-2 clinical isolates; [11],> 1000 nM
same,MPI (%),HIV-2 clinical isolates; [11],12%
same,EC50,HIV-2 clinical isolates; [12],0.68 nM
same,MPI (%),HIV-2 clinical isolates; [12],100%
same,EC50,HIV-2 clinical isolates; X4 HIV-2 clinical isolate,> 1000 nM
same,MPI,HIV-2 clinical isolates; X4 HIV-2 clinical isolate,0%
same,EC50,HIV-2 clinical isolates; [13],9.4 nM
same,MPI,HIV-2 clinical isolates; [13],55%
same,EC50,HIV-2 clinical isolates; [14],> 1000 nM
same,MPI,HIV-2 clinical isolates; [14],12%
same,IC50,"HIV-2 clinical isolates; read-out: Median IC50, HIV-2 (n = 13), Observed Results",0.8 nM
same,EC50,"HIV-2 clinical isolates; read-out: median EC50, 13 R5 HIV-2 clinical isolates",0.8 nM
"CCCCOCCOc1ccc(-c2ccc3c(c2)C=C(C(=O)Nc2ccc([S@@+]([O-])Cc4cncn4CCC)cc2)CCCN3CC(C)C)cc1 [cenicriviroc mesylate, (S)-8-[4-(2-Butoxyethoxy)phenyl]-1-isobutyl-N-(4-{[(1-propyl-1H-imidazol-5-yl)methyl]sulfinyl}phenyl)-1,2,3,4-tetrahydro-1-benzazocine-5-carboxamide monomethanesulfonoate]",solubility,[6]; 99.5% ethanol,sparingly soluble
same,solubility,"[6]; acetonitrile, 1-octanol, tetrahydrofuran",slightly soluble
same,solubility,[6]; aqueous solution at pH 3,sparingly soluble
same,solubility,[6]; aqueous solution from pH 1 to 2,freely soluble
same,solubility,[6]; aqueous solution from pH 4 to 13 and in water,practically insoluble
same,solubility,[6]; ethyl acetate and diethylether,practically insoluble
same,solubility,"[6]; glacial acetic acid, methanol, benzyl alcohol, dimethylsulfoxide, N,N-dimethylformamide",freely soluble
same,solubility,[6]; pyridine and acetic anhydride,soluble
